{
  "source": "ChEMBL document CHEMBL2073854",
  "about": "“Localization and function of the organic anion-transporting polypeptide Oatp2 in rat liver” (Gastroenterology, 1999)",
  "key": {"[1]": {"target": "T1, Solute carrier organic anion transporter family member 1A4 (Rattus norvegicus, UniProt O35913)", "T1 sequence (O35913 whole entry)": "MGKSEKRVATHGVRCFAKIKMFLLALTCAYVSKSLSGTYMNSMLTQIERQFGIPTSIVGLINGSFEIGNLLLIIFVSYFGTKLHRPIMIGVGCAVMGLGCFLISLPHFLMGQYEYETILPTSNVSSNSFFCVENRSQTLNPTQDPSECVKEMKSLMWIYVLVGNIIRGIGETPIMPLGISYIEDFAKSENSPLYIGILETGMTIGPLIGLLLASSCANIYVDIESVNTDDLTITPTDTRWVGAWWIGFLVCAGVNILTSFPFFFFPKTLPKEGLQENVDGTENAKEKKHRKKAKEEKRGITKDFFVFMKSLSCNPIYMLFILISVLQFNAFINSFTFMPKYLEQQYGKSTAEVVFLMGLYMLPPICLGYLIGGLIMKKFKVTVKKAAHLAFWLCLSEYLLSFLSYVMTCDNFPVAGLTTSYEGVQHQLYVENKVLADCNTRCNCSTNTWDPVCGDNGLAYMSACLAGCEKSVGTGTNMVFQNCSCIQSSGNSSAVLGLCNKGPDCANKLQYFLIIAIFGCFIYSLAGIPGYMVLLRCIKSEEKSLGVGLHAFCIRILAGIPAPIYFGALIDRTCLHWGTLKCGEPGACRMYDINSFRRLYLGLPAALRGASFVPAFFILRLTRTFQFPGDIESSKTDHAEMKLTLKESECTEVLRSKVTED", "experiment": "(§1) TP_TRANSPORTER: uptake in Xenopus laevis oocytes", "assay_type": "functional, cell-based", "conditions": "oocyte"}, "[2]": {"target": "T2, Solute carrier organic anion transporter family member 1A1 (Rattus norvegicus, UniProt P46720)", "T2 sequence (P46720 whole entry)": "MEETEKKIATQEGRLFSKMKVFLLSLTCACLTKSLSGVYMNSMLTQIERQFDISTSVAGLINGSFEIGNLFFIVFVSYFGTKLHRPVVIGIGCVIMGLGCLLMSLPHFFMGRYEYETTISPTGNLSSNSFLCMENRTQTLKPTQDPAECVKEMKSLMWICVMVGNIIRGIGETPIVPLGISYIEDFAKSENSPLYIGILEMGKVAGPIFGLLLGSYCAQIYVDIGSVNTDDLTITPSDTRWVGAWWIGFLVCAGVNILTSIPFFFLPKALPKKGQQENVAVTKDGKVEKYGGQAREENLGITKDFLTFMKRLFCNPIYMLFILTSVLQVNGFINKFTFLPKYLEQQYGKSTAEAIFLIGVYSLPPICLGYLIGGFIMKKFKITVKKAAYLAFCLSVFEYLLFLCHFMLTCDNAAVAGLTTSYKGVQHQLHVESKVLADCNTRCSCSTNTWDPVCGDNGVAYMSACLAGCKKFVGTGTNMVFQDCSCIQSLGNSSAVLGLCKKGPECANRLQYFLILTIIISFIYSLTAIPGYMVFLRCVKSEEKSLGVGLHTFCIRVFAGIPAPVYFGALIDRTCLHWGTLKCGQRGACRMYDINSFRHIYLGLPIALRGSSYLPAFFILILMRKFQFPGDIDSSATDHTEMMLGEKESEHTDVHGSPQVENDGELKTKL", "experiment": "as §1", "assay_type": "functional, cell-based", "conditions": "oocyte"}, "[3]": {"substrate": "CC(C)C[C@@H]1NC(=O)[C@@H](C(C)C)NC(=O)[C@@H]2CCCN2C(=O)[C@@H](CC(=O)O)NC(=O)[C@@H](Cc2c[nH]c3ccccc23)NC1=O", "experiment": "as §1", "assay_type": "functional, cell-based, Oocyte"}, "[4]": {"substrate": "[H][C@]12CC[C@]3([H])[C@]([H])(CC[C@]4(C)C([C@H](C)CCC(=O)NCCS(=O)(=O)O)CC[C@@]34[H])[C@@]1(C)CC[C@@H](OS(=O)(=O)O)C2", "experiment": "as §1", "assay_type": "functional, cell-based, Oocyte"}, "[5]": {"substrate": "C[C@H](CCC(=O)NCCS(=O)(=O)O)[C@H]1CC[C@H]2[C@@H]3[C@@H](O)C[C@@H]4C[C@H](O)CC[C@]4(C)[C@H]3CC[C@]12C", "experiment": "as §1", "assay_type": "functional, cell-based, Oocyte"}, "[6]": {"substrate": "C[C@H](CCC(=O)NCCS(=O)(=O)O)[C@H]1CC[C@H]2[C@@H]3[C@H](O)C[C@@H]4C[C@H](O)CC[C@]4(C)[C@H]3CC[C@]12C", "experiment": "as §1", "assay_type": "functional, cell-based, Oocyte"}, "[7]": {"substrate": "[H][C@@]12CC=C3C[C@@H](OS(=O)(=O)O)CC[C@]3(C)[C@@]1([H])CC[C@]1(C)C(=O)CC[C@@]21[H]", "experiment": "as §1", "assay_type": "functional, cell-based, Oocyte"}},
  "data": [
    {"molecule": "O=C1OC(c2ccc(O)c(S(=O)(=O)[O-])c2)(c2ccc(O)c(S(=O)(=O)[O-])c2)c2c(Br)c(Br)c(Br)c(Br)c21.[Na+].[Na+]", "note": "[SULFOBROMOPHTHALEIN SODIUM]", "values": [
      {"measurement": "Activity", "setting": "[1]", "value": "is not a substrate [-]"}
    ]},
    {"molecule": "C[C@H](CCC(=O)NCCS(=O)(=O)O)C1CC[C@H]2[C@@H]3CC[C@@H]4C[C@H](OS(=O)(=O)O)CC[C@]4(C)[C@H]3CC[C@]12C", "note": "(some centres not stated)", "values": [
      {"measurement": "Activity", "setting": "[1]", "value": "is not a substrate [-]"}
    ]},
    {"molecule": "GADOXETATE", "values": [
      {"measurement": "Activity", "setting": "[1]", "value": "is not a substrate [-]"}
    ]},
    {"molecule": "CCCCC/C=C\\C\\C=C/C=C/C=C/[C@@H](SC[C@@H](NC(=O)CC[C@H](N)C(=O)O)C(=O)NCC(=O)O)[C@@H](O)CCCC(=O)O", "note": "[LEUKOTRIEN C4]", "values": [
      {"measurement": "Activity", "setting": "[1]", "value": "is not a substrate [-]"}
    ]},
    {"molecule": "C=CC1=C(C)/C(=C/c2[nH]c(Cc3[nH]c(/C=C4\\NC(=O)C(C)=C4C=C)c(C)c3CCC(=O)O[C@@H]3OC(C(=O)O)[C@@H](O)C(O)C3O)c(CCC(=O)O)c2C)NC1=O", "note": "(some centres not stated) [BILIRUBIN MONOGLUCURONIDE]", "values": [
      {"measurement": "Activity", "setting": "[2]", "value": "substrate [+]"},
      {"measurement": "Activity", "setting": "[1]", "value": "is not a substrate [-]"}
    ]},
    {"molecule": "Solute carrier organic anion transporter family member 1A1 (Rattus norvegicus) (protein) MEETEKKIATQEGRLFSKMKVFLLSLTCACLTKSLSGVYMNSMLTQIERQFDISTSVAGLINGSFEIGNLFFIVFVSYFGTKLHRPVVIGIGCVIMGLGCLLMSLPHFFMGRYEYETTISPTGNLSSNSFLCMENRTQTLKPTQDPAECVKEMKSLMWICVMVGNIIRGIGETPIVPLGISYIEDFAKSENSPLYIGILEMGKVAGPIFGLLLGSYCAQIYVDIGSVNTDDLTITPSDTRWVGAWWIGFLVCAGVNILTSIPFFFLPKALPKKGQQENVAVTKDGKVEKYGGQAREENLGITKDFLTFMKRLFCNPIYMLFILTSVLQVNGFINKFTFLPKYLEQQYGKSTAEAIFLIGVYSLPPICLGYLIGGFIMKKFKITVKKAAYLAFCLSVFEYLLFLCHFMLTCDNAAVAGLTTSYKGVQHQLHVESKVLADCNTRCSCSTNTWDPVCGDNGVAYMSACLAGCKKFVGTGTNMVFQDCSCIQSLGNSSAVLGLCKKGPECANRLQYFLILTIIISFIYSLTAIPGYMVFLRCVKSEEKSLGVGLHTFCIRVFAGIPAPVYFGALIDRTCLHWGTLKCGQRGACRMYDINSFRHIYLGLPIALRGSSYLPAFFILILMRKFQFPGDIDSSATDHTEMMLGEKESEHTDVHGSPQVENDGELKTKL", "values": [
      {"measurement": "Km", "setting": "[3]", "value": 600, "unit": "µM"},
      {"measurement": "Km", "setting": "[4]", "value": 6, "unit": "µM"}
    ]},
    {"molecule": "Solute carrier organic anion transporter family member 1A4 (Rattus norvegicus) (protein) MGKSEKRVATHGVRCFAKIKMFLLALTCAYVSKSLSGTYMNSMLTQIERQFGIPTSIVGLINGSFEIGNLLLIIFVSYFGTKLHRPIMIGVGCAVMGLGCFLISLPHFLMGQYEYETILPTSNVSSNSFFCVENRSQTLNPTQDPSECVKEMKSLMWIYVLVGNIIRGIGETPIMPLGISYIEDFAKSENSPLYIGILETGMTIGPLIGLLLASSCANIYVDIESVNTDDLTITPTDTRWVGAWWIGFLVCAGVNILTSFPFFFFPKTLPKEGLQENVDGTENAKEKKHRKKAKEEKRGITKDFFVFMKSLSCNPIYMLFILISVLQFNAFINSFTFMPKYLEQQYGKSTAEVVFLMGLYMLPPICLGYLIGGLIMKKFKVTVKKAAHLAFWLCLSEYLLSFLSYVMTCDNFPVAGLTTSYEGVQHQLYVENKVLADCNTRCNCSTNTWDPVCGDNGLAYMSACLAGCEKSVGTGTNMVFQNCSCIQSSGNSSAVLGLCNKGPDCANKLQYFLIIAIFGCFIYSLAGIPGYMVLLRCIKSEEKSLGVGLHAFCIRILAGIPAPIYFGALIDRTCLHWGTLKCGEPGACRMYDINSFRRLYLGLPAALRGASFVPAFFILRLTRTFQFPGDIESSKTDHAEMKLTLKESECTEVLRSKVTED", "values": [
      {"measurement": "Km", "setting": "[3]", "value": 30, "unit": "µM"},
      {"measurement": "Km", "setting": "[5]", "value": 17, "unit": "µM"},
      {"measurement": "Km", "setting": "[6]", "value": 12, "unit": "µM"},
      {"measurement": "Km", "setting": "[7]", "value": 17, "unit": "µM"}
    ]}
  ]
}
